Test results as given in PubChem BioAssay AID248 (DTP/NCI, 2004).
Several values for one entry are separate records, joined by “and”; a condition that tells them apart may be missing. Identical values can stand only once. Inconclusive results and toxic doses are left out. Rule as the data show it: active = T/C of 150% or more; inactive = T/C below 125%.

Tested on: L1210 leukemia ip in BDF1 mice, survival T/C
Test: NCI In Vivo Anticancer Drug Screen. Data for tumor model L1210 Leukemia (intraperitoneal) in B6D2F1 (BDF1) mice
Details: endpoint: mean survival time, higher = longer survival
Summary of the method: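 Value reflects the ratio of survival in compound-treated mice to survival in vehicle-treated controls, with both groups carrying the same transplanted tumor.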

[1] = dose: 50.0 mg/kg/injection, schedule: Q01DX001 (ip), vehicle: carboxymethylcellulose (CMC)
[2] = dose: 100.0 mg/kg/injection, schedule: Q01DX009 (ip), vehicle: Klucel (hydroxypropylcellulose) (HPC)
[3] = dose: 100.0 mg/kg/injection, schedule: Q04DX003 (ip), vehicle: Klucel (hydroxypropylcellulose) (HPC)
[4] = dose: 200.0 mg/kg/injection, schedule: Q01DX009 (ip), vehicle: Klucel (hydroxypropylcellulose) (HPC)
[5] = dose: 200.0 mg/kg/injection, schedule: Q04DX003 (ip), vehicle: Klucel (hydroxypropylcellulose) (HPC)
[6] = dose: 400.0 mg/kg/injection, schedule: Q01DX009 (ip), vehicle: Klucel (hydroxypropylcellulose) (HPC)
[7] = dose: 400.0 mg/kg/injection, schedule: Q04DX003 (ip), vehicle: Klucel (hydroxypropylcellulose) (HPC)
[8] = dose: 100.0 mg/kg/injection, schedule: Q04DX002 (ip), vehicle: Klucel (hydroxypropylcellulose) (HPC)
[9] = dose: 200.0 mg/kg/injection, schedule: Q04DX002 (ip), vehicle: Klucel (hydroxypropylcellulose) (HPC)
[10] = dose: 100.0 mg/kg/injection, schedule: Q01DX001 (ip), vehicle: Klucel (hydroxypropylcellulose) (HPC)
[11] = dose: 200.0 mg/kg/injection, schedule: Q01DX001 (ip), vehicle: Klucel (hydroxypropylcellulose) (HPC)
[12] = dose: 400.0 mg/kg/injection, schedule: Q01DX001 (ip), vehicle: Klucel (hydroxypropylcellulose) (HPC)
[13] = dose: 100.0 mg/kg/injection, schedule: Q04DX003 (ip), vehicle: saline
[14] = dose: 200.0 mg/kg/injection, schedule: Q04DX003 (ip), vehicle: saline
[15] = dose: 400.0 mg/kg/injection, schedule: Q04DX003 (ip), vehicle: saline
[16] = dose: 100.0 mg/kg/injection, schedule: Q01DX009 (ip), vehicle: saline
[17] = dose: 200.0 mg/kg/injection, schedule: Q01DX009 (ip), vehicle: saline
[18] = dose: 50.0 mg/kg/injection, schedule: Q01DX001 (ip), vehicle: saline
[19] = dose: 100.0 mg/kg/injection, schedule: Q01DX001 (ip), vehicle: saline
[20] = dose: 200.0 mg/kg/injection, schedule: Q01DX001 (ip), vehicle: saline
[21] = dose: 400.0 mg/kg/injection, schedule: Q01DX001 (ip), vehicle: saline
[22] = dose: 100.0 mg/kg/injection, schedule: Q01DX009 (ip), vehicle: saline with Tween-80
[23] = dose: 100.0 mg/kg/injection, schedule: Q04DX003 (ip), vehicle: saline with Tween-80
[24] = dose: 200.0 mg/kg/injection, schedule: Q01DX009 (ip), vehicle: saline with Tween-80
[25] = dose: 200.0 mg/kg/injection, schedule: Q04DX003 (ip), vehicle: saline with Tween-80
[26] = dose: 400.0 mg/kg/injection, schedule: Q01DX009 (ip), vehicle: saline with Tween-80
[27] = dose: 400.0 mg/kg/injection, schedule: Q04DX003 (ip), vehicle: saline with Tween-80
[28] = dose: 50.0 mg/kg/injection, schedule: Q01DX009 (ip), vehicle: saline

Measured: T/C

Oc1ccc(N=Nc2ccccc2)c(O)c1.Oc1ccc(N=Nc2ccccc2)c(O)c1.[Cu]
inactive: [1] 90 % of control | dose: 400.0 mg/kg/injection, schedule: Q01DX001 (ip), vehicle: carboxymethylcellulose (CMC) 87 % of control

CCCCC(CC)C1OC(=O)C(C)O1 (stereo not drawn)
inactive: [2] 100 % of control | [3] 102 % of control | [4] 104 % of control | [5] 100 % of control | [6] 105 % of control | [7] 102 % of control

O=c1[nH]c2c(c(=O)[nH]1)CCCCC2
inactive: [8] 95 % of control | [9] 89 % of control | dose: 400.0 mg/kg/injection, schedule: Q04DX002 (ip), vehicle: Klucel (hydroxypropylcellulose) (HPC) 92 % of control

CCCCCc1[nH]c(=O)[nH]c(=O)c1S(=O)(=O)N1CCCCC1
inactive: [10] 107 % of control | [11] 97 % of control | [12] 110 % of control

NCCB(O)O
inactive: [13] 95 % of control | [14] 93 % of control | [15] 98 % of control

Oc1ccc[n+](CCCl)c1
inactive: dose: 6.25 mg/kg/injection, schedule: Q01DX015 (ip), vehicle: saline 96 % of control | dose: 12.5 mg/kg/injection, schedule: Q01DX015 (ip), vehicle: saline 100 % of control | dose: 25.0 mg/kg/injection, schedule: Q01DX015 (ip), vehicle: saline 104 % of control | dose: 50.0 mg/kg/injection, schedule: Q01DX015 (ip), vehicle: saline 100 % of control | dose: 100.0 mg/kg/injection, schedule: Q01DX015 (ip), vehicle: saline 100 % of control | dose: 200.0 mg/kg/injection, schedule: Q01DX015 (ip), vehicle: saline 96 % of control | dose: 300.0 mg/kg/injection, schedule: Q01DX015 (ip), vehicle: saline 100 % of control

O=C(O)c1ccc(=O)[nH]c1
inactive: [16] 95 % of control | [13] 107 % of control | [17] 96 % of control | [14] 109 % of control | dose: 400.0 mg/kg/injection, schedule: Q01DX009 (ip), vehicle: saline 95 % of control | [15] 104 % of control

CCC(CC)(c1ccccc1)C(O)c1ccccc1 (stereo not drawn)
inactive: [18] 97 % of control | [19] 97 % of control | [20] 103 % of control | [21] 101 % of control

CCN(CC)CCCCCCNc1ccnc2cc(Cl)ccc12
inactive: [1] 95 % of control

CCOC(=O)C(C)C(OCC)OCC (stereo not drawn)
inactive: [2] 96 % of control | [3] 90 % of control | [4] 104 % of control | [5] 103 % of control | [6] 89 % of control | [7] 107 % of control

CCCCCCCCC(CO)CCCCCC (stereo not drawn)
inactive: [13] 100 % of control | [14] 106 % of control | [15] 92 % of control

O=C1OC(=O)C2C3CC(C(Br)C3C(F)(Br)Br)C12 (stereo not drawn)
inactive: [22] 87 % of control | [23] 115 % of control | [24] 93 % of control | [25] 98 % of control | [26] 90 % of control | [27] 91 % of control

S=C(S)Nc1cccc2ccccc12
inactive: dose: 12.5 mg/kg/injection, schedule: Q01DX009 (ip), vehicle: Klucel (hydroxypropylcellulose) (HPC) 103 % of control | dose: 12.5 mg/kg/injection, schedule: Q04DX003 (ip), vehicle: Klucel (hydroxypropylcellulose) (HPC) 100 % of control | dose: 25.0 mg/kg/injection, schedule: Q01DX009 (ip), vehicle: Klucel (hydroxypropylcellulose) (HPC) 98 % of control | dose: 25.0 mg/kg/injection, schedule: Q04DX003 (ip), vehicle: Klucel (hydroxypropylcellulose) (HPC) 94 % of control | dose: 50.0 mg/kg/injection, schedule: Q01DX009 (ip), vehicle: Klucel (hydroxypropylcellulose) (HPC) 92 % of control | dose: 50.0 mg/kg/injection, schedule: Q04DX003 (ip), vehicle: Klucel (hydroxypropylcellulose) (HPC) 100 % of control | [2] 94 % of control | [22] 89 % of control | [3] 98 % of control | [23] 93 % of control and 86 % of control | [4] 94 % of control | [24] 88 % of control | [5] 96 % of control | [25] 95 % of control and 86 % of control | [6] 99 % of control | [26] 104 % of control | [7] 91 % of control | [27] 101 % of control and 86 % of control

CCOC(=O)c1cnc(SC)nc1NNc1ccc([N+](=O)[O-])cc1
inactive: dose: 100.0 mg/kg/injection, schedule: Q01DX001 (ip), vehicle: saline with Tween-80 90 % of control | dose: 200.0 mg/kg/injection, schedule: Q01DX001 (ip), vehicle: saline with Tween-80 92 % of control

COC1OC(CI)C(OS(C)(=O)=O)C(OC(=O)c2ccccc2)C1OC(=O)c1ccccc1 (stereo not drawn)
inactive: [8] 91 % of control | [9] 97 % of control

CCOC(=O)CCc1c[nH]c(C)c1C(=O)C(=O)OCC
inactive: [10] 95 % of control | [3] 93 % of control | [11] 98 % of control | [5] 102 % of control | [12] 95 % of control | [7] 96 % of control

Cc1cccc(C)c1N(C=O)N=O
inactive: [19] 110 % of control | [20] 104 % of control

CN(C)CCCN1c2ccccc2CCc2ccccc21
inactive: dose: 3.12 mg/kg/injection, schedule: Q01DX009 (ip), vehicle: saline 96 % of control | dose: 6.25 mg/kg/injection, schedule: Q01DX009 (ip), vehicle: saline 101 % of control | dose: 12.5 mg/kg/injection, schedule: Q01DX009 (ip), vehicle: saline 93 % of control | dose: 25.0 mg/kg/injection, schedule: Q01DX009 (ip), vehicle: saline 104 % of control | dose: 25.0 mg/kg/injection, schedule: Q04DX003 (ip), vehicle: saline 100 % of control | [28] 101 % of control | dose: 50.0 mg/kg/injection, schedule: Q04DX003 (ip), vehicle: saline 93 % of control | [19] 94 % of control | [20] 90 % of control

CC(c1ccccc1)c1ccc(O)cc1 (stereo not drawn)
inactive: dose: 100.0 mg/kg/injection, schedule: Q01DX009 (ip), vehicle: saline sonified 97 % of control | dose: 200.0 mg/kg/injection, schedule: Q01DX009 (ip), vehicle: saline sonified 95 % of control | dose: 400.0 mg/kg/injection, schedule: Q01DX009 (ip), vehicle: saline sonified 97 % of control

COc1ccccc1-n1c(O)c(N=Nc2ccccc2C)c(=O)n(-c2ccc(C)cc2)c1=S
inactive: dose: 37.5 mg/kg/injection, schedule: Q01DX001 (ip), vehicle: Klucel (hydroxypropylcellulose) (HPC) 102 % of control | dose: 75.0 mg/kg/injection, schedule: Q01DX001 (ip), vehicle: Klucel (hydroxypropylcellulose) (HPC) 99 % of control | dose: 150.0 mg/kg/injection, schedule: Q01DX001 (ip), vehicle: Klucel (hydroxypropylcellulose) (HPC) 89 % of control

N#CCCCCCCCCC(=O)c1ccc(O)cc1O
inactive: dose: 87.5 mg/kg/injection, schedule: Q01DX009 (ip), vehicle: Klucel (hydroxypropylcellulose) (HPC) 96 % of control | dose: 175.0 mg/kg/injection, schedule: Q01DX009 (ip), vehicle: Klucel (hydroxypropylcellulose) (HPC) 100 % of control | dose: 350.0 mg/kg/injection, schedule: Q01DX009 (ip), vehicle: Klucel (hydroxypropylcellulose) (HPC) 102 % of control

NC(=S)c1cccc(S(=O)(=O)Nc2ccccc2)c1
inactive: [10] 103 % of control | [11] 105 % of control | [12] 101 % of control

CC(C)CCS(=O)(=O)O
inactive: [18] 104 % of control | [19] 104 % of control | [20] 98 % of control | [21] 102 % of control

CC(CN1CCOCC1)O[Si](C)(C)C (stereo not drawn)
inactive: [28] 92 % of control | [16] 96 % of control | [17] 96 % of control
